Results: PubChem BioAssay (NCI)
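GI50 marks 50% less growth. TGI is the concentration that stops growth completely.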

Tests used:
Assay in all cases: inhibition of tumour cell growth, NCI panel, 384-well format
786-0 renal = tested on: 786-0 renal
A498 renal = tested on: A498 renal
A549 NSCLC = tested on: A549 NSCLC
ACHN renal = tested on: ACHN renal
BT-549 breast = tested on: BT-549 breast
CAKI-1 renal = tested on: CAKI-1 renal
CCRF-CEM leukemia = tested on: CCRF-CEM leukemia
COLO 205 colon = tested on: COLO 205 colon
DU-145 prostate = tested on: DU-145 prostate
EKVX NSCLC = tested on: EKVX NSCLC
HCC-2998 colon = tested on: HCC-2998 colon
HCT-116 colon = tested on: HCT-116 colon
HCT-15 colon = tested on: HCT-15 colon
HL-60(TB) leukemia = tested on: HL-60(TB) leukemia
HOP-62 NSCLC = tested on: HOP-62 NSCLC
HOP-92 NSCLC = tested on: HOP-92 NSCLC
HS 578T breast = tested on: HS 578T breast
HT29 colon = tested on: HT29 colon
IGROV1 ovarian = tested on: IGROV1 ovarian
K-562 leukemia = tested on: K-562 leukemia
KM12 colon = tested on: KM12 colon
LOX IMVI melanoma = tested on: LOX IMVI melanoma
M14 melanoma = tested on: M14 melanoma
MALME-3M melanoma = tested on: MALME-3M melanoma
MCF7 breast = tested on: MCF7 breast
MDA-MB-231 breast = tested on: MDA-MB-231 breast
MDA-MB-435 melanoma = tested on: MDA-MB-435 melanoma
MDA-MB-468 breast = tested on: MDA-MB-468 breast
MOLT-4 leukemia = tested on: MOLT-4 leukemia

CN(CCO)C1CCN(c2ccc(Nc3ncc4c5ccnc(F)c5n(C5CCCC5)c4n3)nc2)CC1
GI50 ([…]-0 renal): 1150 nM | TGI (786-0 renal): 2370 nM | GI50 (A498 renal): 853 nM | TGI (A498 renal): 2120 nM | GI50 (A549 NSCLC): 619 nM | TGI (A549 NSCLC): 1990 nM | GI50 (ACHN renal): 1000 nM | TGI (ACHN renal): 2190 nM | GI50 (BT-549 breast): 1490 nM | TGI (BT-549 breast): 2830 nM | GI50 (CAKI-1 renal): 868 nM | TGI (CAKI-1 renal): 2150 nM | GI50 (CCRF-CEM leukemia): 89.3 nM | TGI (CCRF-CEM leukemia): 1250 nM | GI50 (COLO 205 colon): 373 nM | TGI (COLO 205 colon): 1950 nM | GI50 (DU-145 prostate): 1720 nM | TGI (DU-145 prostate): 3130 nM | GI50 (EKVX NSCLC): 1270 nM | TGI (EKVX NSCLC): 2560 nM | GI50 (HCC-2998 colon): 655 nM | TGI (HCC-2998 colon): 2010 nM | GI50 (HCT-116 colon): 684 nM | TGI (HCT-116 colon): 2050 nM | GI50 (HCT-15 colon): 1080 nM | TGI (HCT-15 colon): 2320 nM | GI50 (HL-60(TB) leukemia): 52.1 nM | TGI (HL-60(TB) leukemia): 1760 nM | GI50 (HOP-62 NSCLC): 1170 nM | TGI (HOP-62 NSCLC): 2420 nM | GI50 (HOP-92 NSCLC): 3020 nM | TGI (HOP-92 NSCLC): 15400 nM | GI50 (HS 578T breast): 1420 nM | TGI (HS 578T breast): 3200 nM | GI50 (HT29 colon): 1020 nM | TGI (HT29 colon): 2230 nM | GI50 (IGROV1 ovarian): 1050 nM | TGI (IGROV1 ovarian): 2260 nM | GI50 (K-562 leukemia): 664 nM | TGI (K-562 leukemia): 2090 nM | GI50 (KM12 colon): 56.8 nM | TGI (KM12 colon): 1280 nM | GI50 (LOX IMVI melanoma): 977 nM | TGI (LOX IMVI melanoma): 2180 nM | GI50 (M14 melanoma): 1190 nM | TGI (M14 melanoma): 2440 nM | GI50 (MALME-3M melanoma): 1340 nM | TGI (MALME-3M melanoma): 2640 nM | GI50 (MCF7 breast): 353 nM | TGI (MCF7 breast): 1760 nM | GI50 (MDA-MB-231 breast): 1260 nM | TGI (MDA-MB-231 breast): 2710 nM | GI50 (MDA-MB-435 melanoma): 2260 nM | TGI (MDA-MB-435 melanoma): 9490 nM | GI50 (MDA-MB-468 breast): 1630 nM | TGI (MDA-MB-468 breast): 2990 nM | GI50 (MOLT-4 leukemia): 62.4 nM | TGI (MOLT-4 leukemia): 812 nM
